Among the data in patent US7666875B2, “Hydantoin compounds” (Eisai R&D Management Co., Ltd., priority 2005, dated 2010) are IC50 values, retold here.

Where two headings read alike, the source gives them in different places.

The experiment deals with T1, human T-bet (Homo sapiens, UniProt Q9UL17).
T1 construct: expressed in transfected cells; host or cells: engineered HEK cells (HEKT-bet)
T1 sequence (Q9UL17 1-535): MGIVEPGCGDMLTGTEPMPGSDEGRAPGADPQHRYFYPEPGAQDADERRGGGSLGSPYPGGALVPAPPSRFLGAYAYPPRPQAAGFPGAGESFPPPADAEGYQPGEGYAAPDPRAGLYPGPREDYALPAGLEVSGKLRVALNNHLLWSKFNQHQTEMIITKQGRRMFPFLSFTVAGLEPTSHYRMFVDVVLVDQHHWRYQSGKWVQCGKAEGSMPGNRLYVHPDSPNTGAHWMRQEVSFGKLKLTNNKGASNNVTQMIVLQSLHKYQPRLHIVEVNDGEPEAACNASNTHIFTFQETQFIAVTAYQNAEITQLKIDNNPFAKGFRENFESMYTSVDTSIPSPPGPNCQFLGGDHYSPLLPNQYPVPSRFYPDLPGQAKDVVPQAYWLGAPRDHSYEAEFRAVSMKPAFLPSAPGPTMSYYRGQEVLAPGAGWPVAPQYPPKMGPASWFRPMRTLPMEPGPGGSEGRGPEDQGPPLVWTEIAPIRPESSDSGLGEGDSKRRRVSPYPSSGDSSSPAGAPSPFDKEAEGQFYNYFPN
The experiment can be described thus: HEKT-bet-luc assay (T-bet dependent luciferase reporter in engineered HEK cells). Type of experiment: cell-based. As for the experimental part:
HEKT-bet-luc assay: This assay measures a T-bet dependent reporter (luciferase) activity in engineered HEK cells that express a human T-bet and a T-box responsive element driving luciferase reporter. HEKT-bet cells were plated at 2×10^4/well in 96-well plate and compound was added into cell culture for 24 hours. Luciferase activity was measured by adding 50 μl of Steady-Glo reagent (Promega) and samples were read in Victor V reader (PerkinElmer). The IC50 values were calculated utilizing a maximum value corresponding to the amount of luciferase in the absence of a test compound and a minimum value corresponding to a test compound value obtained at maximum inhibition.
Determination of Normalized HEKT-bet IC50 values: Compounds were assayed in microtiter plates. Each plate included a reference compound which was ER-213038. The un-normalized IC50 value for a particular compound was divided by the IC50 value determined for the reference compound in the same microtiter plate to provide a relative potency value. The relative potency value was then multiplied by the established potency of the reference compound to provide the normalized HEKT-bet IC50 value. […] The IC50 values provided herein were obtained using this normalization method.

Setting [1] is: Table 4, HEKT-bet cells, compound 24 hours, IC50 normalized to reference ER-213038, read-out: IC50.

For `COCCN1C(=O)N(Cc2cccc(OC)c2)C(=O)C12CCN(Cc1cccc3c1Cc1ccccc1-3)CC2` [Example 169], under setting [1], the IC50 turned out to be 190 nM.

For `COCCN1C(=O)N(Cc2cccc(OC)c2)C(=O)C12CCN(Cc1cccc(OC)c1)CC2` [Example 170], the IC50 (reference compound used for normalization on each microtiter plate, read-out: established potency of the reference compound (HEKT-bet IC50)) was determined as 190 nM.

Turning to `COCCN1C(=O)N(C/C=C/c2ccccc2)C(=O)C12CCN(Cc1ccccc1)CC2` [Example 171], under setting [1], the IC50 worked out at 191 nM.

Regarding `COCCN1C(=O)N(Cc2cccc(OC)c2)C(=O)C12CCN(Cc1csc3ccccc13)CC2` [Example 172], the IC50 under setting [1] was 193 nM.

As to `COc1cccc(CN2C(=O)N(Cc3cccnc3)C3(CCN(Cc4cccc5ccccc45)CC3)C2=O)c1` [Example 173], the IC50 under setting [1] stood at 196 nM.

Regarding `COc1cccc(CN2CCC3(CC2)NC(=O)N(C/C=C/c2ccccc2)C3=O)c1` [Example 174], under setting [1], the concentration for half-maximal inhibition (IC50) worked out at 198 nM.

On to `COCCN1C(=O)N(Cc2cccc(OC)c2)C(=O)C12CCN(Cc1c3ccccc3c(C)c3ccccc13)CC2` [Example 175], for which the concentration for half-maximal inhibition (IC50) under setting [1] worked out at 200 nM.

Take `COCCN1C(=O)N(Cc2cccc(OC)c2)C(=O)C12CCN(Cc1cccc(N3CCCC3)c1)CC2` [Example 176]: the IC50 under setting [1] amounted to 203 nM.

For the compound `CCN1C(=O)N(Cc2ccc3ccccc3c2)C(=O)C12CCN(Cc1cc(OC)cc(OC)c1)CC2` [Example 177], the IC50 under setting [1] came out at 205 nM.

Consider `COCCN1C(=O)N(Cc2cccc(OC)c2)C(=O)C12CCN(Cc1cccc(OC)c1)CC2` [Example 178], for which, under setting [1], the 50% inhibitory concentration (IC50) is 205 nM.

Turning to `COc1cccc(CN2C(=O)N(Cc3ccccn3)C3(CCN(Cc4cc(OC)cc(OC)c4)CC3)C2=O)c1` [Example 179], the IC50 under setting [1] is 215 nM.

As for `COCCN1C(=O)N(Cc2cccc(OC)c2)C(=O)C12CCN(Cc1cc3c(OC)cccc3cc1OC)CC2` [Example 180], the IC50 under setting [1] worked out at 223 nM.

For `COCCN1C(=O)N(Cc2cccc(OC)c2)C(=O)C12CCN(Cc1cccc(-c3ccccc3)c1)CC2` [Example 181], the IC50 under setting [1] was found to be 225 nM.

For the compound `O=C1N(C/C=C/c2ccccc2)C(=O)C2(CCN(Cc3cccc4ccccc34)CC2)N1Cc1ccc(-n2cccn2)cn1` [Example 182], the IC50 under setting [1] was determined as 226 nM.

Turning to `COCCN1C(=O)N(Cc2cc(OC)cc(OC)c2)C(=O)C12CCN(Cc1cc(OC)cc(OC)c1)CC2` [Example 183], the IC50 under setting [1] turned out to be 230 nM.

For `CN1C(=O)N(C/C=C/c2ccccc2)C(=O)C12CCN(Cc1cccc3ccccc13)CC2` [Example 184], under setting [1], the 50% inhibitory concentration (IC50) was 235 nM.

For the compound `O=C1N(C/C=C/c2ccccc2)C(=O)C2(CCN(Cc3cccc4ccccc34)CC2)N1Cc1cccnc1` [Example 185], under setting [1], the IC50 amounted to 235 nM.

As for `COCCN1C(=O)N(Cc2cccc(OC)c2)C(=O)C12CCN(Cc1c(C)cc(C)cc1C)CC2` [Example 186], under setting [1], the IC50 is 236 nM.

With `COCCN1C(=O)N(Cc2ccc3ccccc3c2)C(=O)C12CCN(Cc1cccc3ccccc13)CC2` [Example 187], under setting [1], the IC50 amounted to 243 nM.

Consider `COCCN1C(=O)N(CCCc2ccccc2)C(=O)C12CCN(Cc1cc(OC)cc(OC)c1)CC2` [Example 188], for which the concentration for half-maximal inhibition (IC50) under setting [1] turned out to be 246 nM.

In the case of `COCCN1C(=O)N(Cc2cccc(N(C)C)c2)C(=O)C12CCN(Cc1ccccc1)CC2` [Example 189], the half-maximal inhibitory concentration (IC50) under setting [1] was determined as 247 nM.

For `COCCN1C(=O)N(C/C=C/c2ccc(C)cc2)C(=O)C12CCN(Cc1ccccc1)CC2` [Example 190], the IC50 under setting [1] was found to be 251 nM.

Regarding `COCCN1C(=O)N(Cc2cccc(OC)c2)C(=O)C12CCN(Cc1cccc3ccccc13)CC2` [Example 191], under setting [1], the IC50 is 253 nM.

For `COCCN1C(=O)N(Cc2cccc(OC)c2)C(=O)C12CCN(Cc1c(C)c(C)cc(C)c1C)CC2` [Example 192], the IC50 under setting [1] was determined as 260 nM.

In the case of `COCCN1C(=O)N(Cc2cccc(OC)c2)C(=O)C12CCN(Cc1ccccc1C)CC2` [Example 193], the IC50 under setting [1] amounted to 261 nM.

As for `COCCN1C(=O)N(Cc2cccc(OC)c2)C(=O)C12CCN(Cc1ccc(N(C)C)c3ccccc13)CC2` [Example 194], the IC50 under setting [1] stood at 262 nM.

With `COCCN1C(=O)N(CCCOc2ccccc2)C(=O)C12CCN(Cc1cc(OC)cc(OC)c1)CC2` [Example 195], under setting [1], the IC50 came out at 264 nM.

As to `COCCN1C(=O)N(Cc2ccccc2)C(=O)C12CCN(Cc1cc(OC)cc(OC)c1)CC2` [Example 196], the IC50 under setting [1] turned out to be 268 nM.

As to `CCN1C(=O)N(Cc2cccc(OC)c2)C(=O)C12CCN(Cc1ccc3ccccc3c1)CC2` [Example 197], under setting [1], the concentration for half-maximal inhibition (IC50) came out at 270 nM.

`COCCN1C(=O)N(Cc2cccc(OC)c2)C(=O)C12CCN(Cc1ccc(C)cc1C)CC2` [Example 199]: under setting [1], the 50% inhibitory concentration (IC50) is 279 nM.

On to `COc1cccc(CN2C(=O)N(CCO)C3(CCN(Cc4cc(OC)cc(OC)c4)CC3)C2=O)c1` [Example 200], for which the IC50 under setting [1] was found to be 285 nM.

For `COc1cc(CN2CCC3(CC2)C(=O)N(C/C=C/c2ccccc2)C(=O)N3Cc2cccc3cccnc23)cc(OC)c1` [Example 201], the IC50 under setting [1] came to 288 nM.

For the compound `COc1cccc(CN2C(=O)N(Cc3cccc(OC)c3)C3(CCN(Cc4cc(OC)cc(OC)c4)CC3)C2=O)c1` [Example 202], the IC50 under setting [1] was 290 nM.

As for `COCCN1C(=O)N(Cc2cccc(OC)c2)C(=O)C12CCN(Cc1cccc(OC(F)(F)F)c1)CC2` [Example 203], under setting [1], the IC50 is 291 nM.

On to `O=C1N(C/C=C/c2ccccc2)C(=O)C2(CCN(Cc3cccc4ccccc34)CC2)N1CCO` [Example 204], for which, under setting [1], the IC50 is 298 nM.

With `COCCN1C(=O)N(C/C=C/c2cccc(C)c2)C(=O)C12CCN(Cc1ccccc1)CC2` [Example 205], the IC50 under setting [1] stood at 298 nM.

As to `COCN1C(=O)N(C/C=C/c2ccccc2)C(=O)C12CCN(Cc1cccc3ccccc13)CC2` [Example 206], the IC50 under setting [1] turned out to be 311 nM.

Take `COCCCN1C(=O)N(Cc2cc(OC)cc(OC)c2)C(=O)C12CCN(Cc1cc(OC)cc(OC)c1)CC2` [Example 207]: the half-inhibitory concentration (IC50) under setting [1] worked out at 317 nM.

On to `COCCN1C(=O)N(CCCOc2ccccc2)C(=O)C12CCN(Cc1cccc(C)c1)CC2` [Example 208], for which the IC50 under setting [1] is 317 nM.

As to `COCCN1C(=O)N(Cc2cccc(OC)c2)C(=O)C12CCN(Cc1cc(-c3ccccc3)ccc1OC)CC2` [Example 209], the IC50 under setting [1] amounted to 325 nM.

In the case of `COCCN1C(=O)N(Cc2cccc(OC)c2)C(=O)C12CCN(Cc1cccc3c1OCO3)CC2` [Example 210], the IC50 under setting [1] turned out to be 333 nM.

For `COc1cccc(CN2C(=O)N(CCn3cccc3)C3(CCN(Cc4cccc5ccccc45)CC3)C2=O)c1` [Example 211], the IC50 under setting [1] was found to be 334 nM.

Take `COCCN1C(=O)N(Cc2cccc(OC)c2)C(=O)C12CCN(Cc1ccc(C)c(C)c1)CC2` [Example 212]: the IC50 under setting [1] was 336 nM.

Consider `COCCN1C(=O)N(Cc2cccc(OC)c2)C(=O)C12CCN(Cc1ccc3ccccc3c1)CC2` [Example 213], for which the IC50 under setting [1] came to 337 nM.

For the compound `CCN1C(=O)N(Cc2ccc3ccccc3c2)C(=O)C12CCN(Cc1cccc(OC)c1)CC2` [Example 214], the IC50 under setting [1] stood at 344 nM.

`COCCN1C(=O)N(Cc2cc(OC)ccc2OC)C(=O)C12CCN(Cc1cc(OC)cc(OC)c1)CC2` [Example 215]: the IC50 under setting [1] came out at 348 nM.

For the compound `COc1cccc(CN2C(=O)N(CCCO)C3(CCN(Cc4cccc5ccccc45)CC3)C2=O)c1` [Example 216], the IC50 under setting [1] was determined as 349 nM.

On to `CCN1C(=O)N(CCCOc2ccccc2)C(=O)C12CCN(Cc1cc(OC)cc(OC)c1)CC2` [Example 217], for which the IC50 under setting [1] came to 350 nM.

Regarding `COCCN1C(=O)N(Cc2cccc(OC)c2)C(=O)C12CCN(Cc1cccc(-c3ccncc3)c1)CC2` [Example 218], the IC50 under setting [1] came to 351 nM.
